Read-outs that look alike come from different tables or passages of the source.
Tested on: de novo fatty acid synthesis
[1] = Liver, CE, mean of treated mice
[2] = Liver, FFA, mean of treated mice
[3] = Liver, PC, mean of treated mice
[4] = Liver, PS/I, mean of treated mice
[5] = Liver, TAG, mean of treated mice
[6] = Plasma, CE, mean of treated mice
[7] = Plasma, FFA, mean of treated mice
[8] = Plasma, PC, mean of treated mice
[9] = Plasma, PL, mean of treated mice
[10] = Plasma, TAG, mean of treated mice

CN(CCOc1ccc(CC2SC(=O)NC2=O)cc1)c1ccccn1 (stereo not drawn) [rosiglitazone]
18:0 [1]: 204.4 nanomoles per gram | 18:1n7 [1]: 138.6 nanomoles per gram | 18:1n9 [1]: 1208.0 nanomoles per gram | Saturates [1]: 3147.2 nanomoles per gram | Total n7 [1]: 817.0 nanomoles per gram | Total n9 [1]: 1239.5 nanomoles per gram | Total nMole of [1]: 5830.7 nanomoles per gram | 14:0 (Liver, CL, mean): 0.5 percentage of total fatty acids within each lipid class | 16:0 (Liver, CL, mean): 5.7 percentage of total fatty acids within each lipid class | 16:1n7 (Liver, CL, mean): 6.3 percentage of total fatty acids within each lipid class | 18:0 (Liver, CL, mean): 3.6 percentage of total fatty acids within each lipid class | 18:1n7 (Liver, CL, mean): 5.5 percentage of total fatty acids within each lipid class | 18:1n9 (Liver, CL, mean): 10.0 percentage of total fatty acids within each lipid class | Saturates (Liver, CL, mean): 10.6 percentage of total fatty acids within each lipid class | Total (Liver, CL, mean): 100.0 percentage of total fatty acids within each lipid class | Total n7 (Liver, CL, mean): 11.8 percentage of total fatty acids within each lipid class | Total n9 (Liver, CL, mean): 10.5 percentage of total fatty acids within each lipid class | 14:0 (Liver, FFA, mean): 1.0 percentage of total fatty acids within each lipid class | 16:0 (Liver, FFA, mean): 19.9 percentage of total fatty acids within each lipid class | 16:1n7 (Liver, FFA, mean): 9.4 percentage of total fatty acids within each lipid class | 18:0 (Liver, FFA, mean): 3.0 percentage of total fatty acids within each lipid class | 18:1n7 (Liver, FFA, mean): 6.4 percentage of total fatty acids within each lipid class | 18:1n9 (Liver, FFA, mean): 25.4 percentage of total fatty acids within each lipid class | Saturates (Liver, FFA, mean): 24.4 percentage of total fatty acids within each lipid class | Total (Liver, FFA, mean): 100.0 percentage of total fatty acids within each lipid class | Total n7 (Liver, FFA, mean): 15.8 percentage of total fatty acids within each lipid class | Total n9 (Liver, FFA, mean): 26.0 percentage of total fatty acids within each lipid class | 14:0 [2]: 236.5 nanomoles per gram | 16:0 [2]: 4507.0 nanomoles per gram | 16:1n7 [2]: 2121.2 nanomoles per gram | 18:0 [2]: 691.5 nanomoles per gram | 18:1n7 [2]: 1466.0 nanomoles per gram | 18:1n9 [2]: 5761.2 nanomoles per gram | Saturates [2]: 5541.5 nanomoles per gram | Total n7 [2]: 3587.3 nanomoles per gram | Total n9 [2]: 5909.9 nanomoles per gram | Total nMole of [2]: 22631.3 nanomoles per gram | 14:0 (Liver, PC, mean): 0.2 percentage of total fatty acids within each lipid class | 16:0 (Liver, PC, mean): 33.3 percentage of total fatty acids within each lipid class | 16:1n7 (Liver, PC, mean): 1.7 percentage of total fatty acids within each lipid class | 18:0 (Liver, PC, mean): 10.3 percentage of total fatty acids within each lipid class | 18:1n7 (Liver, PC, mean): 4.6 percentage of total fatty acids within each lipid class | 18:1n9 (Liver, PC, mean): 9.6 percentage of total fatty acids within each lipid class | Saturates (Liver, PC, mean): 44.1 percentage of total fatty acids within each lipid class | Total (Liver, PC, mean): 100.0 percentage of total fatty acids within each lipid class | Total n7 (Liver, PC, mean): 6.4 percentage of total fatty acids within each lipid class | Total n9 (Liver, PC, mean): 10.2 percentage of total fatty acids within each lipid class | 14:0 [3]: 43.2 nanomoles per gram | 16:0 [3]: 9572.4 nanomoles per gram | 16:1n7 [3]: 501.3 nanomoles per gram | 18:0 [3]: 2975.6 nanomoles per gram | 18:1n7 [3]: 1329.1 nanomoles per gram | 18:1n9 [3]: 2767.4 nanomoles per gram | Saturates [3]: 12686.5 nanomoles per gram | Total n7 [3]: 1830.5 nanomoles per gram | Total n9 [3]: 2932.3 nanomoles per gram | Total nMole of [3]: 14390.8 nanomoles per gram | 14:0 (Liver, PS/I, mean): 0.2 percentage of total fatty acids within each lipid class | 16:0 (Liver, PS/I, mean): 11.1 percentage of total fatty acids within each lipid class | 16:1n7 (Liver, PS/I, mean): 0.7 percentage of total fatty acids within each lipid class | 18:0 (Liver, PS/I, mean): 32.3 percentage of total fatty acids within each lipid class | 18:1n7 (Liver, PS/I, mean): 2.9 percentage of total fatty acids within each lipid class | 18:1n9 (Liver, PS/I, mean): 6.7 percentage of total fatty acids within each lipid class | Saturates (Liver, PS/I, mean): 44.2 percentage of total fatty acids within each lipid class | Total (Liver, PS/I, mean): 100.0 percentage of total fatty acids within each lipid class | Total n7 (Liver, PS/I, mean): 3.6 percentage of total fatty acids within each lipid class | Total n9 (Liver, PS/I, mean): 8.2 percentage of total fatty acids within each lipid class | 14:0 [4]: 18.9 nanomoles per gram | 16:0 [4]: 1158.5 nanomoles per gram | 16:1n7 [4]: 76.0 nanomoles per gram | 18:0 [4]: 3348.9 nanomoles per gram | 18:1n7 [4]: 303.2 nanomoles per gram | 18:1n9 [4]: 693.2 nanomoles per gram | Saturates [4]: 4590.1 nanomoles per gram | Total n7 [4]: 379.2 nanomoles per gram | Total n9 [4]: 854.3 nanomoles per gram | Total nMole of [4]: 5196.5 nanomoles per gram | 14:0 (Liver, TAG, mean): 0.5 percentage of total fatty acids within each lipid class | 16:0 (Liver, TAG, mean): 27.1 percentage of total fatty acids within each lipid class | 16:1n7 (Liver, TAG, mean): 8.1 percentage of total fatty acids within each lipid class | 18:0 (Liver, TAG, mean): 0.6 percentage of total fatty acids within each lipid class | 18:1n7 (Liver, TAG, mean): 5.8 percentage of total fatty acids within each lipid class | 18:1n9 (Liver, TAG, mean): 39.6 percentage of total fatty acids within each lipid class | Saturates (Liver, TAG, mean): 28.6 percentage of total fatty acids within each lipid class | Total (Liver, TAG, mean): 100.0 percentage of total fatty acids within each lipid class | Total n7 (Liver, TAG, mean): 13.9 percentage of total fatty acids within each lipid class | Total n9 (Liver, TAG, mean): 40.5 percentage of total fatty acids within each lipid class | 14:0 [5]: 2450.8 nanomoles per gram | 16:0 [5]: 122013.9 nanomoles per gram | 16:1n7 [5]: 36411.0 nanomoles per gram | 18:0 [5]: 2665.4 nanomoles per gram | 18:1n7 [5]: 26279.6 nanomoles per gram | 18:1n9 [5]: 179035.8 nanomoles per gram | Saturates [5]: 129102.3 nanomoles per gram | Total n7 [5]: 62690.6 nanomoles per gram | Total n9 [5]: 183105.4 nanomoles per gram | Total nMole of [5]: 150412.8 nanomoles per gram | 14:0 (Plasma, CE, mean): 0.6 percentage of total fatty acids within each lipid class | 16:0 (Plasma, CE, mean): 3.7 percentage of total fatty acids within each lipid class | 16:1n7 (Plasma, CE, mean): 6.5 percentage of total fatty acids within each lipid class | 18:0 (Plasma, CE, mean): 0.2 percentage of total fatty acids within each lipid class | 18:1n7 (Plasma, CE, mean): 0.7 percentage of total fatty acids within each lipid class | 18:1n9 (Plasma, CE, mean): 6.1 percentage of total fatty acids within each lipid class | Saturates (Plasma, CE, mean): 4.9 percentage of total fatty acids within each lipid class | Total (Plasma, CE, mean): 100.0 percentage of total fatty acids within each lipid class | Total n7 (Plasma, CE, mean): 7.3 percentage of total fatty acids within each lipid class | Total n9 (Plasma, CE, mean): 6.6 percentage of total fatty acids within each lipid class | 14:0 [6]: 16.8 nanomoles per gram | 16:0 [6]: 113.0 nanomoles per gram | 16:1n7 [6]: 200.8 nanomoles per gram | 18:0 [6]: 7.1 nanomoles per gram | 18:1n7 [6]: 22.7 nanomoles per gram | 18:1n9 [6]: 189.1 nanomoles per gram | Saturates [6]: 148.8 nanomoles per gram | Total n7 [6]: 223.4 nanomoles per gram | Total n9 [6]: 202.2 nanomoles per gram | Total nMole of [6]: 3058.7 nanomoles per gram | 14:0 (Plasma, FFA, mean): 3.3 percentage of total fatty acids within each lipid class | 16:0 (Plasma, FFA, mean): 30.9 percentage of total fatty acids within each lipid class | 16:1n7 (Plasma, FFA, mean): 8.3 percentage of total fatty acids within each lipid class | 18:0 (Plasma, FFA, mean): 8.1 percentage of total fatty acids within each lipid class | 18:1n7 (Plasma, FFA, mean): 3.2 percentage of total fatty acids within each lipid class | 18:1n9 (Plasma, FFA, mean): 18.4 percentage of total fatty acids within each lipid class | Saturates (Plasma, FFA, mean): 43.8 percentage of total fatty acids within each lipid class | Total (Plasma, FFA, mean): 100.0 percentage of total fatty acids within each lipid class | Total n9 (Plasma, FFA, mean): 18.9 percentage of total fatty acids within each lipid class | 14:0 [7]: 15.9 nanomoles per gram | 16:0 [7]: 148.4 nanomoles per gram | 16:1n7 [7]: 41.4 nanomoles per gram | 18:0 [7]: 37.3 nanomoles per gram | 18:1n7 [7]: 15.2 nanomoles per gram | 18:1n9 [7]: 90.2 nanomoles per gram | Saturates [7]: 208.8 nanomoles per gram | Total n7 [7]: 56.7 nanomoles per gram | Total n9 [7]: 92.7 nanomoles per gram | Total nMole of [7]: 478.4 nanomoles per gram | 14:0 (Plasma, PC, mean): 0.1 percentage of total fatty acids within each lipid class | 16:0 (Plasma, PC, mean): 30.8 percentage of total fatty acids within each lipid class | 16:1n7 (Plasma, PC, mean): 0.8 percentage of total fatty acids within each lipid class | 18:0 (Plasma, PC, mean): 13.0 percentage of total fatty acids within each lipid class | 18:1n7 (Plasma, PC, mean): 4.1 percentage of total fatty acids within each lipid class | 18:1n9 (Plasma, PC, mean): 9.4 percentage of total fatty acids within each lipid class | Saturates (Plasma, PC, mean): 44.6 percentage of total fatty acids within each lipid class | Total (Plasma, PC, mean): 100.0 percentage of total fatty acids within each lipid class | Total n7 (Plasma, PC, mean): 4.9 percentage of total fatty acids within each lipid class | Total n9 (Plasma, PC, mean): 9.9 percentage of total fatty acids within each lipid class | 14:0 [8]: 5.7 nanomoles per gram | 16:0 [8]: 1246.9 nanomoles per gram | 16:1n7 [8]: 34.2 nanomoles per gram | 18:0 [8]: 528.9 nanomoles per gram | 18:1n7 [8]: 164.8 nanomoles per gram | 18:1n9 [8]: 383.4 nanomoles per gram | Saturates [8]: 1804.9 nanomoles per gram | Total n7 [8]: 199.0 nanomoles per gram | Total n9 [8]: 405.1 nanomoles per gram | Total nMole of [8]: 2027.9 nanomoles per gram | 14:0 (Plasma, PL, mean): 0.2 percentage of total fatty acids within each lipid class | 16:0 (Plasma, PL, mean): 30.9 percentage of total fatty acids within each lipid class | 16:1n7 (Plasma, PL, mean): 0.9 percentage of total fatty acids within each lipid class | 18:0 (Plasma, PL, mean): 11.9 percentage of total fatty acids within each lipid class | 18:1n7 (Plasma, PL, mean): 3.9 percentage of total fatty acids within each lipid class | 18:1n9 (Plasma, PL, mean): 7.4 percentage of total fatty acids within each lipid class | Saturates (Plasma, PL, mean): 43.9 percentage of total fatty acids within each lipid class | Total (Plasma, PL, mean): 100.0 percentage of total fatty acids within each lipid class | Total n7 (Plasma, PL, mean): 4.8 percentage of total fatty acids within each lipid class | Total n9 (Plasma, PL, mean): 8.7 percentage of total fatty acids within each lipid class | 14:0 [9]: 7.7 nanomoles per gram | 16:0 [9]: 1533.6 nanomoles per gram | 16:1n7 [9]: 43.0 nanomoles per gram | 18:0 [9]: 604.7 nanomoles per gram | 18:1n7 [9]: 195.0 nanomoles per gram | 18:1n9 [9]: 384.8 nanomoles per gram | Saturates [9]: 2191.4 nanomoles per gram | Total n7 [9]: 238.0 nanomoles per gram | Total n9 [9]: 449.9 nanomoles per gram | Total nMole of [9]: 2496.5 nanomoles per gram | 14:0 (Plasma, TAG, mean): 1.2 percentage of total fatty acids within each lipid class | 16:0 (Plasma, TAG, mean): 21.9 percentage of total fatty acids within each lipid class | 16:1n7 (Plasma, TAG, mean): 7.0 percentage of total fatty acids within each lipid class | 18:0 (Plasma, TAG, mean): 1.8 percentage of total fatty acids within each lipid class | 18:1n7 (Plasma, TAG, mean): 4.5 percentage of total fatty acids within each lipid class | 18:1n9 (Plasma, TAG, mean): 27.2 percentage of total fatty acids within each lipid class | Saturates (Plasma, TAG, mean): 25.8 percentage of total fatty acids within each lipid class | Total (Plasma, TAG, mean): 100.0 percentage of total fatty acids within each lipid class | Total n9 (Plasma, TAG, mean): 27.9 percentage of total fatty acids within each lipid class | 14:0 [10]: 17.1 nanomoles per gram | 16:0 [10]: 315.8 nanomoles per gram | 16:1n7 [10]: 102.5 nanomoles per gram | 18:0 [10]: 24.9 nanomoles per gram | 18:1n7 [10]: 66.1 nanomoles per gram | 18:1n9 [10]: 398.8 nanomoles per gram | Saturates [10]: 368.7 nanomoles per gram | Total n7 [10]: 168.5 nanomoles per gram | Total n9 [10]: 410.2 nanomoles per gram | Total nMole of [10]: 484.3 nanomoles per gram

Source: US20050009005A1, “Methods of using quantitative lipid metabolome data” (Lipomics Technologies, Inc., priority 2001, published 2005)
